Results published in US10947252B2, “Inhibitors of KEAP1-Nrf2 protein-protein interaction” (Janssen Pharmaceutica NV, priority 2018, dated 2021).

Assays:
[1] = target: Kelch domain of human KEAP1 (321-624 aa) (Homo sapiens (Human), UniProt Q14145); assay: KEAP1 KELCH ThermoFluor binding assay; settings: KEAP Kelch […], 1,8-ANS, pH 7.0, average of results obtained, read-out: Tf Kd;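 note: Ligand-induced melting temperature shift of E. coli-expressed KEAP1 Kelch protein, Kd estimated from concentration-response curves of ΔTm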
Kelch domain of human KEAP1 (321-624 aa), sequence (Q14145 321-624): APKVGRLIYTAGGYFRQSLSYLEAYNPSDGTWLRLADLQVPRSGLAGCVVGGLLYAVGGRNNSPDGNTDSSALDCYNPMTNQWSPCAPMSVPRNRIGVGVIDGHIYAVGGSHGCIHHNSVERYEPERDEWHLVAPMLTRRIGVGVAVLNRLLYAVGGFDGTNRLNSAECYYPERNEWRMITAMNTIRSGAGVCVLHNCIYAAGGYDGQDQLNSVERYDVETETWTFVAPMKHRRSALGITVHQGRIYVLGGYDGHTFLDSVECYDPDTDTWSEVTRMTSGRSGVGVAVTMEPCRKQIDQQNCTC
Source text: The shift in the melting point described as a ΔTm is proportional to the concentration and affinity of the ligand. The compound potency may be compared as a rank order of either ΔTm values at a single compound concentration or in terms of KD values, estimated from concentration response curves.
The protein was expressed in E. coli with 6His tag that was cleaved prior to receipt for use.
Protein (KEAP Kelch) and compound solutions were dispensed into black 384-well polypropylene PCR microplates (Abgene) and overlayed with silicone oil (1 μL, Fluka, type DC 200) to prevent evaporation.

[2] = test system: Glo-Response ARE-luc2P HEK293 cell line; assay: ARE luciferase reporter cell-based assay; settings: Homo sapiens, HEK293, 24 h, average of results obtained;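 note: luciferase signal tracks Nrf2 activation of the ARE once compounds disrupt KEAP1-Nrf2 binding, read with One-Glo reagent, DMSO serving as low control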

In the case of `Cc1ccc([C@H](c2ccn3c(C(F)(F)F)nnc3c2C)C(C)(C)C(=O)O)cc1CN1CC2(CCOCC2)Oc2nc(NC3CC(O)C3)c(C)cc2S1(=O)=O` (stereo in doubt) [Example 125, (*R)-3-(3-((7′-(((1s,3S)-3-Hydroxycyclobutyl)amino)-8′-methyl-1′,1′-dioxido-2,3,5,6-tetrahydrospiro[pyran-4,4′-pyrido[2,3-b][1,4,5]oxathiazepin]-2′(3′H)-yl)methyl)-4-methylphenyl)-2,2-dimethyl-3-(8-methyl-3-(trifluoromethyl)-[1,2,4]triazolo[4,3-a]pyridine-7-yl)propanoic Acid], the Kd [1] is reported as < 1 nM and the EC50 [2] is reported as 140 nM.

For `Cc1ccc(C(CC(=O)O)c2ccn3c(C(F)(F)F)nnc3c2C)cc1CN1C[C@H]2CCCCN2c2ncccc2S1(=O)=O` (stereo in doubt) [Example 271, 3-(3-(((*R)-5,5-Dioxido-7,7a,8,9,10,11-hexahydro-6H-dipyrido[2,1-d:2′,3′-f][1,2,5]thiadiazepin-6-yl)methyl)-4-methylphenyl)-3-(8-methyl-3-(trifluoromethyl)-[1,2,4]triazolo[4,3-a]pyridin-7-yl)propanoic Acid], the Kd [1] was < 1 nM and the EC50 [2] was 22.9 nM.

In the case of `Cc1ccc(C(CC(=O)O)c2ccn3c(C(F)(F)F)nnc3c2C)cc1CN1C[C@@H]2CCCCN2c2ncccc2S1(=O)=O` (stereo in doubt) [Example 289, 3-(3-(((*S)-5,5-Dioxido-7,7a,8,9,10,11-hexahydro-6H-dipyrido[2,1-d:2′,3′-f][1,2,5]thiadiazepin-6-yl)methyl)-4-methylphenyl)-3-(8-methyl-3-(trifluoromethyl)-[1,2,4]triazolo[4,3-a]pyridin-7-yl)propanoic Acid], the Kd [1] is reported as < 1 nM and the EC50 [2] is reported as 19.3 nM.

In the case of `CCn1nnc2c(C)c(C(CC(=O)O)c3ccc(C)c(CN4C[C@@H]5CCCCN5c5ncccc5S4(=O)=O)n3)ccc21` (stereo in doubt) [Example 301, 3-(6-(((*S)-5,5-Dioxido-7,7a,8,9,10,11-hexahydro-6H-dipyrido[2,1-d:2′,3′-][1,2,5]thiadiazepin-6-yl)methyl)-5-methylpyridin-2-yl)-3-(1-ethyl-4-methyl-1H-benzo[d][1,2,3]triazol-5-yl)propanoic Acid], the Kd [1] is reported as < 1 nM and the EC50 [2] is reported as 4.7 nM.

In the case of `CCn1nnc2c(C)c(C(CC(=O)O)c3ccc(C)c(CN4C[C@H]5CCCCN5c5ncccc5S4(=O)=O)n3)ccc21` (stereo in doubt) [Example 304, 3-(6-(((*R)-5,5-Dioxido-7,7a,8,9,10,11-hexahydro-6H-dipyrido[2,1-d:2′,3′-][1,2,5]thiadiazepin-6-yl)methyl)-5-methylpyridin-2-yl)-3-(1-ethyl-4-methyl-1H-benzo[d][1,2,3]triazol-5-yl)propanoic Acid], the Kd [1] is reported as < 1 nM and the EC50 [2] is reported as 2.9 nM.

`Cc1ccc([C@H](CC(=O)O)c2ccn3c(C(F)(F)F)nnc3c2C)cc1CN1CC2CCCCN2c2ncc(C#N)cc2S1(=O)=O` (stereo in doubt) [Example 312, (*S)-3-(3-((3-Cyano-5,5-dioxido-7,7a,8,9,10,11-hexahydro-6H-dipyrido[2,1-d:2′,3′-f][1,2,5]thiadiazepin-6-yl)methyl)-4-methylphenyl)-3-(8-methyl-3-(trifluoromethyl)-[1,2,4]triazolo[4,3-a]pyridin-7-yl)propanoic Acid] was tested, and the Kd [1] was < 1 nM and the EC50 [2] was 13.1 nM.

In the case of `Cc1ccc([C@H](c2ccn3c(C(F)(F)F)nnc3c2C)C(C)(C)C(=O)O)cc1CN1CC2(CCOCC2)Oc2nc(NC(C)CN3CCCCC3)c(C)cc2S1(=O)=O` (stereo in doubt) [Example 376, 3-(*R)-2,2-Dimethyl-3-(4-methyl-3-((8′-methyl-1′,1′-dioxido-7′-((1-piperidin-1-yl)propan-2-yl)amino)-2,3,5,6-tetrahydrospiro[pyran-4,4′-pyrido[2,3-b][1,4,5]oxathiazepin]-2′(3′H)-yl)methyl)phenyl)-3-(8-methyl-3-(trifluoromethyl)-[1,2,4]triazolo[4,3-a]pyridine-7-yl)propanoic Acid], the Kd [1] is reported as < 1 nM and the EC50 [2] is reported as 57.3 nM.

For `Cc1ccc(C(CC(=O)O)c2cc(OC3CC3)c3c(c2)nnn3C)cc1CN1C[C@H]2CCCCN2c2ncccc2S1(=O)=O` (stereo in doubt) [Example 403, 3-(7-Cyclopropoxy-1-methyl-1H-benzo[d][1,2,3]triazol-5-yl)-3-(3-(((*R)-5,5-dioxido-7,7a,8,9,10,11-hexahydro-6H-dipyrido[2,1-d:2′,3′-f][1,2,5]thiadiazepin-6-yl)methyl)-4-methylphenyl)propanoic Acid], the Kd [1] was < 1 nM and the EC50 [2] was 20.8 nM.

`Cc1cc2cc(C(CC(=O)O)c3ccc(C)c(CN4C[C@H]5CCCCN5c5ncccc5S4(=O)=O)c3)n(C)c2nn1` (stereo in doubt) [Example 443, 3-(3,7-Dimethyl-7H-pyrrolo[2,3-c]pyridazin-6-yl)-3-(3-(((*R)-5,5-dioxido-7,7a,8,9,10,11-hexahydro-6H-dipyrido[2,1-d:2′,3′-f][1,2,5]thiadiazepin-6-yl)methyl)-4-methylphenyl)propanoic Acid] was tested, and the Kd [1] was < 1 nM and the EC50 [2] was 1100 nM.

For `Cc1ccc(C(CC(=O)O)c2ccn3c(C(F)F)nnc3c2C)cc1CN1C[C@@H]2CCCCN2c2ncccc2S1(=O)=O` (stereo in doubt) [Example 446, 3-(3-(Difluoromethyl)-8-methyl-[1,2,4]triazolo[4,3-a]pyridin-7-yl)-3-(3-(((*S)-5,5-dioxido-7,7a,8,9,10,11-hexahydro-6H-dipyrido[2,1-d:2′,3′-f][1,2,5]thiadiazepin-6-yl)methyl)-4-methylphenyl)propanoic Acid], the Kd [1] was < 1 nM and the EC50 [2] was 23.8 nM.

`Cc1ccc(C(CC(=O)O)c2ccn3c(C(F)F)nnc3c2C)cc1CN1C[C@@H]2COCCN2c2ncccc2S1(=O)=O` (stereo in doubt) [Example 457, 3-(3-(Difluoromethyl)-8-methyl-[1,2,4]triazolo[4,3-a]pyridin-7-yl)-3-(3-(((*R)-5,5-dioxido-7a,8,10,11-tetrahydro-[1,4]oxazino[3,4-d]pyrido[2,3-f][1,2,5]thiadiazepin-6(7H)-yl)methyl)-4-methylphenyl)propanoic Acid] was tested, and the Kd [1] was 1.02 nM and the EC50 [2] was 479 nM.

Work on `Cc1ccc(C(CC(=O)O)c2ccn3c(C(F)F)nnc3c2C)cc1CN1C[C@H]2COCCN2c2ncccc2S1(=O)=O` (stereo in doubt) [Example 460, 3-(3-(Difluoromethyl)-8-methyl-[1,2,4]triazolo[4,3-a]pyridin-7-yl)-3-(3-(((*S)-5,5-dioxido-7a,8,10,11-tetrahydro-[1,4]oxazino[3,4-d]pyrido[2,3-f][1,2,5]thiadiazepin-6(7H)-yl)methyl)-4-methylphenyl)propanoic Acid] yielded a Kd [1] of 2.73 nM and an EC50 [2] of 119 nM.

In the case of `Cc1ccc(C(CC(=O)O)c2ccn3c(C(F)F)nnc3c2C)cc1CN1C[C@]2(C)CCCN2c2ncccc2S1(=O)=O` (stereo in doubt) [Example 475, 3-(3-(Difluoromethyl)-8-methyl-[1,2,4]triazolo[4,3-a]pyridin-7-yl)-3-(4-methyl-3-(((*S)-7a-methyl-5,5-dioxido-7a,8,9,10-tetrahydropyrido[2,3-f]pyrrolo[2,1-d][1,2,5]thiadiazepin-6(7H)-yl)methyl)phenyl)propanoic Acid], the Kd [1] is reported as < 1 nM and the EC50 [2] is reported as 406 nM.

For `Cc1ccc(C(CC(=O)O)c2ccn3c(C(F)(F)F)nnc3c2C)nc1CN1C[C@@H]2CCCCN2c2ncccc2S1(=O)=O` (stereo in doubt) [Example 478, 3-(6-(((*S)-5,5-Dioxido-7,7a,8,9,10,11-hexahydro-6H-dipyrido[2,1-d:2′,3′-f][1,2,5]thiadiazepin-6-yl)methyl)-5-methylpyridin-2-yl)-3-(8-methyl-3-(trifluoromethyl)-[1,2,4]triazolo[4,3-a]pyridin-7-yl)propanoic Acid], the Kd [1] was < 1 nM and the EC50 [2] was 57.6 nM.

For `Cc1cnc2c(c1)S(=O)(=O)N(Cc1nc(C(CC(=O)O)c3ccn4c(C(F)(F)F)nnc4c3C)ccc1C)C[C@@H]1CCCCN21` (stereo in doubt) [Example 487, 3-(8-Methyl-3-(trifluoromethyl)-[1,2,4]triazolo[4,3-a]pyridin-7-yl)-3-(5-methyl-6-(((*S)-3-methyl-5,5-dioxido-7,7a,8,9,10,11-hexahydro-6H-dipyrido[2,1-d:2′,3′-f][1,2,5]thiadiazepin-6-yl)methyl)pyridin-2-yl)propanoic Acid], the Kd [1] was < 1 nM and the EC50 [2] was 18.3 nM.

For `Cc1cnc2c(c1)S(=O)(=O)N(Cc1nc(C(CC(=O)O)c3ccn4c(C(F)(F)F)nnc4c3C)ccc1C)C[C@H]1CCCCN21` (stereo in doubt) [Example 490, 3-(8-Methyl-3-(trifluoromethyl)-[1,2,4]triazolo[4,3-a]pyridin-7-yl)-3-(5-methyl-6-(((*R)-3-methyl-5,5-dioxido-7,7a,8,9,10,11-hexahydro-6H-dipyrido[2,1-d:2′,3′-f][1,2,5]thiadiazepin-6-yl)methyl)pyridin-2-yl)propanoic Acid], the Kd [1] was < 1 nM and the EC50 [2] was 5.85 nM.

In the case of `Cc1ccc(C(CC(=O)O)c2ccn3c(C(F)(F)F)nnc3c2C)nc1CN1C[C@@H]2CCCCN2c2ncc(F)cc2S1(=O)=O` (stereo in doubt) [Example 496, 3-(6-(((*S)-3-Fluoro-5,5-dioxido-7,7a,8,9,10,11-hexahydro-6H-dipyrido[2,1-d:2′,3′-f][1,2,5]thiadiazepin-6-yl)methyl)-5-methylpyridin-2-yl)-3-(8-methyl-3-(trifluoromethyl)-[1,2,4]triazolo[4,3-a]pyridin-7-yl)propanoic Acid], the Kd [1] is reported as < 1 nM and the EC50 [2] is reported as 7.65 nM.

With `Cc1cnc2c(c1)S(=O)(=O)N(Cc1cc(C(CC(=O)O)c3ccn4c(C(F)F)nnc4c3C)ccc1C)C[C@@H]1CCCCN21` (stereo in doubt) [Example 499, 3-(3-(Difluoromethyl)-8-methyl-[1,2,4]triazolo[4,3-a]pyridin-7-yl)-3-(4-methyl-3-(((*S)-3-methyl-5,5-dioxido-7,7a,8,9,10,11-hexahydro-6H-dipyrido[2,1-d:2′,3′-f][1,2,5]thiadiazepin-6-yl)methyl)phenyl)propanoic Acid] the Kd [1] was < 1 nM and the EC50 [2] was 12.8 nM.
